Source: PubChem BioAssay (NCI)
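In this assay, cells in 96-well plates receive the compound at five concentrations for 48 hours. Endpoints are linearly interpolated between the surrounding concentrations. GI50: concentration for 50% inhibition of growth. Definition used: TGI = concentration required for complete inhibition of growth.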

Columns and labels:
Assay in all cases: NCI-60 cell line screen, 48 h
M14 melanoma = test system: M14 melanoma
HCT-116 colon = test system: HCT-116 colon
RXF 393 renal = test system: RXF 393 renal
MOLT-4 leukemia = test system: MOLT-4 leukemia
HCT-15 colon = test system: HCT-15 colon
A549 NSCLC = test system: A549 NSCLC
OVCAR-5 ovarian = test system: OVCAR-5 ovarian
IGROV1 ovarian = test system: IGROV1 ovarian
MDA-MB-231 breast = test system: MDA-MB-231 breast
PC-3 prostate = test system: PC-3 prostate

Row | Compound | TGI (M14 melanoma) [µM] | TGI (HCT-116 colon) [µM] | TGI (RXF 393 renal) [µM] | TGI (MOLT-4 leukemia) [µM] | TGI (HCT-15 colon) [µM] | TGI (A549 NSCLC) [µM] | TGI (OVCAR-5 ovarian) [µM] | TGI (IGROV1 ovarian) [µM] | GI50 (M14 melanoma) [µM] | GI50 (HCT-116 colon) [µM] | GI50 (MDA-MB-231 breast) [µM] | TGI (MDA-MB-231 breast) [µM] | GI50 (MOLT-4 leukemia) [µM] | GI50 (HCT-15 colon) [µM] | GI50 (PC-3 prostate) [µM] | TGI (PC-3 prostate) [µM] | GI50 (A549 NSCLC) [µM] | GI50 (OVCAR-5 ovarian) [µM] | GI50 (IGROV1 ovarian) [µM] | GI50 (RXF 393 renal) [µM]
1 | Nc1cccc2c1-c1c(cccc1[N+](=O)[O-])C2=O | > 100 | > 100 | > 100 | > 100 | > 100 | > 100 | > 100 | > 100 |  |  |  |  |  |  |  |  |  |  |  | 
2 | COc1ccc(OC)c(Nc2nc3nonc3nc2Nc2cccc(Br)c2)c1 | 44.7 | > 100 |  | 12.1 | > 100 | > 100 | > 100 | 42.5 | 1.5 | 0.53 | 1.06 | 10.7 | 0.809 | 0.756 | 0.454 | > 100 | 0.713 | 2.56 | 2.87 | 
3 | C[P+]1(Cc2ccccc2)CCCC1 | > 100 | > 100 | > 100 | > 100 | > 100 | > 100 | > 100 | > 100 |  |  |  |  |  |  |  |  |  |  |  | 
4 | O=C(O)c1ccc2c(c1)C(=O)N(c1ccc(S(=O)(=O)c3ccc(N4C(=O)c5ccc(C(=O)O)cc5C4=O)cc3)cc1)C2=O | > 100 | > 100 | > 100 | > 100 | > 100 | > 100 | > 100 |  |  |  |  |  |  |  |  |  |  |  |  | 
5 | N#Cc1c2ccccc2c(Cc2ccc3c(c2)OCCOCCOCCOCCOCCO3)c2ccccc12 | 18 | 21.3 | 7.94 | > 100 | 19.2 | 16.7 | 30.1 | 19.5 |  |  |  |  |  |  |  |  |  |  |  | 
6 | C/C=C/C(=O)Oc1cccc2cccnc12 | 12 | 18.1 | 41.1 | > 100 | 33.4 | > 100 | > 100 | > 94.7 |  |  |  |  |  |  |  |  |  |  |  | 
7 | CC1(C)C(=O)OC(n2cc(F)c(=O)[nH]c2=O)C1=O (centres undefined) | > 100 | > 100 | > 100 | > 100 | > 100 | > 100 | > 100 |  |  |  |  |  |  |  |  |  |  |  |  | 
8 | COc1ccc(CN2C(=O)[C@@H]3Cc4c(OC)c(C)c(OC)c(OC)c4[C@H](/C2=C\c2cc(OC)c(OC)c(C)c2OC)N3C(=O)OC(C)C)cc1 | > 100 | > 100 | > 100 | > 100 |  | > 100 | > 100 | > 100 |  |  |  |  |  |  |  |  |  |  |  | 
9 | Nc1ccccc1C#C/C=C\C#Cc1ccccc1C#CCO | 26 | 24.7 | 32.1 |  | 18.3 | > 50 | > 50 | > 50 | 7.68 | 8.3 | 7.73 | 28.7 |  | 4.92 | 27.5 | > 50 | 11.2 | 16.8 | 0.382 | 9.25
10 | CN(C)NC(=O)/C(=C/c1ccc(Cl)cc1)NC(=O)c1ccccc1 | > 100 | > 100 | > 100 | > 100 | > 100 | > 100 | > 100 | > 100 |  |  |  |  |  |  |  |  |  |  |  | 
11 | NCCCNc1nc2ccccc2c2c(=O)c3cc(F)ccc3sc12 | 3.11 | 2.77 | 2.74 |  | 2.84 | 3.48 | 3.05 | 2.9 | 1.69 | 1.43 | 1.45 | 2.9 |  | 1.43 | 1.45 | 2.98 | 1.59 | 1.61 | 1.42 | 1.42
12 | CCOC(=O)C1=C(C)NC(=O)NC1c1ccc(OC)cc1OC (centres undefined) | > 100 | > 100 | > 100 | > 100 | > 100 | > 100 | > 100 | > 100 |  |  |  |  |  |  |  |  |  |  |  | 
13 | COC(=O)C1=CC2C(=O)OC1C1C(=O)NC(=O)C21 (centres undefined) | > 100 | > 100 |  | > 100 |  | > 100 |  | > 100 |  |  |  |  |  |  |  |  |  |  |  | 
14 | CC1(C)c2ccccc2N2C(c3ccccc3)=NOC21C (centres undefined) | > 100 | > 100 | > 100 | > 100 | > 100 | > 100 | > 100 | > 100 |  |  |  |  |  |  |  |  |  |  |  | 
15 | CC1OC(n2cc(C(F)(F)F)c(=O)[nH]c2=O)C=CC1=O (centres undefined) | 59.8 | 29.7 |  | 57.2 | 47 | > 100 | 33.5 | 39.9 |  |  |  |  |  |  |  |  |  |  |  | 
16 | N#C/C(=C\c1c(O)cc(O)cc1O)C(N)=O | > 100 | > 100 | > 100 | > 100 | > 100 | > 100 | > 100 |  |  |  |  |  |  |  |  |  |  |  |  | 
17 | COc1cccc(Nc2ncnc3cc(NC(=O)CCl)ccc23)c1 | 3 | 2.47 | 2.94 |  | 1.62 | 3.11 | 3.02 | 2.25 | 1.39 | 1.02 | 1.27 | 2.6 |  | 0.353 | 1.12 | 2.46 | 1.48 | 1.61 | 0.568 | 1.46
18 | COc1ccc(Cn2cc(COc3cc(/C=C/C(=O)c4cc(OC)c(OC)c(OC)c4)ccc3OC)nn2)cc1 | > 100 | > 100 | 6.88 | > 100 | > 100 | 47.5 |  | > 100 | 5.6 | 3.36 | 4.62 | > 100 | 4.67 | 2.76 | 3.63 | > 100 | 3.09 |  | 4.14 | 2.29
19 | c1ccc(C2=NOC3C4CCC(C4)C23)cc1 (centres undefined) | > 100 | > 100 |  | > 100 | > 100 | > 100 | > 100 | > 100 |  |  |  |  |  |  |  |  |  |  |  | 
20 | CN(c1ccccc1)c1cc2ccccc2nn1 | > 100 | > 100 | > 100 | > 100 | > 100 | > 100 | > 100 | > 100 |  |  |  |  |  |  |  |  |  |  |  | 
21 | O=c1nc2sc3ccccc3c(=O)n2[nH]1 | > 100 | > 100 | > 100 | > 100 | > 100 | > 100 | > 100 | > 100 |  |  |  |  |  |  |  |  |  |  |  | 
